Experimental data as given in paper PMC5566834 (2017).

Tests used:
[1] = test system: Rd 13 Scrambled (S) (DNA, aptamer) GCTGTGTGCGTGAGTGGAGTGCGCGCGAGAGTGAGTGCGGTGAGAGATTCGGTGTGCGTGTCGTGATGAATGCGACCGG; test: circular dichroism; conditions: 0.2 mM Mg2+; 20 mM Tris pH 7.4; 10 μM aptamer, 100 μM posaconazole; no CD change
[2] = test system: amino-Rd 13 (DNA, aptamer) CGGGGGGAGGCGGAGGGAGGACTGGGGCTTCATTGACGTTCTTCACAGTAGGGGTAAGGGCTTAGGTGGTTGGTGCCTG; test: graphene field effect transistor, Dirac voltage shift; conditions: 140 mM Na+, 2 mM K+, 5 mM Mg2+, 2 mM Ca2+; SELEX buffer (20 mM Tris pH 7.4, 0.05% Tween); Langmuir-Hill fit; also printed as 1.8 ± 0.5 μg/ml
[3] = test system: Rd 13 (DNA, aptamer) CGGGGGGAGGCGGAGGGAGGACTGGGGCTTCATTGACGTTCTTCACAGTAGGGGTAAGGGCTTAGGTGGTTGGTGCCTG; test: competitive fluorescence anisotropy; conditions: 140 mM Na+, 2 mM K+, 5 mM Mg2+, 2 mM Ca2+, 20 mM Tris pH 7.4, PosBD displaced, 1,000 pmol drug in 125 μl

Compound | binding [1] | dissociation constant [2] | binding ([3]; greatest displacement) | binding ([3]; less than posaconazole)
CC[C@@H]([C@H](C)O)n1ncn(-c2ccc(N3CCN(c4ccc(OC[C@@H]5CO[C@@](Cn6cncn6)(c6ccc(F)cc6F)C5)cc4)CC3)cc2)c1=O | no | 2.6 ± 0.7 µM | yes | –
CCC(C)n1ncn(-c2ccc(N3CCN(c4ccc(OCC5COC(Cn6cncn6)(c6ccc(Cl)cc6Cl)O5)cc4)CC3)cc2)c1=O (stereo not shown) | – | – | – | weak
